Assay: Bisbenzotriazole solubility in adhesive GELVA 263
Format: physicochemical
Conditions: in GELVA 263 polyacrylate adhesive; approximate maximum concentration with no sign of crystallization after solvent evaporation; weight added to GELVA 263 as is
Procedure: To measure the solubility of the instant bisbenzotriazole UV absorber in an adhesive composition, the compound is added to a typical adhesive GELVA® 263 (Solutia) which is a 44.5% solution of a polyacrylate in a mixture of ethyl acetate and hexane. The polyacrylate is a copolymer of methyl methacrylate, 2-ethylhexyl methacrylate and glycidyl methacrylate.
The test compound is dissolved in 5 mL of ethyl acetate, toluene or a mixture of ethyl acetate and toluene. To the solution is added 5 g of GELVA® 263. 2-3 mL of the resulting solution is place into individual watch glasses. Solubility is then evaluated based upon observed crystallization once the solvent has evaporated. Observations start after several hours and then continue over a period of several weeks.
Solubilities are reported in weight of total bisbenzotriazole added to GELVA® 263 as is.

SMILES | Solubility without Crystallization (%)
CC(C)(C)c1cc(Cc2cc(C(C)(C)C)cc(-n3nc4ccc(S(=O)(=O)c5ccccc5)cc4n3)c2O)c(O)c(-n2nc3ccc(S(=O)(=O)c4ccccc4)cc3n2)c1 [A, 2,2′-Methylene-bis[6-(5-phenylsulfonyl-2H-benzotriazol-2-yl)-4-tert-butylphenol]] | 0.0%
CC(C)(c1ccccc1)c1cc(-n2nc3ccccc3n2)c(O)c(C(C)(C)c2ccccc2)c1 [B, 2-(2-hydroxy-3,5-di-α-cumylphenyl)-2H-benzotriazole] | 2.0%
CC(C)(C)c1cc(-n2nc3ccc(Cl)cc3n2)c(O)c(C(C)(C)C)c1 [C, 5-chloro-2-(2-hydroxy-3,5-di-tert-butylphenyl)-2H-benzotriazole] | 2.0%
CC(C)(C)CC(C)(C)c1cc(Cc2cc(C(C)(C)CC(C)(C)C)cc(-n3nc4ccc(C(F)(F)F)cc4n3)c2O)c(O)c(-n2nc3ccccc3n2)c1 [D, methylene-2-[4-tert-octyl-6-(2H-benzotriazol-2-yl)phenol]-2′-[4-tert-octyl-6-(5-trifluoromethyl-2H-benzotriazol-2-yl)phenol]] | 2.0%
CC(C)(C)CC(C)(C)c1cc(Cc2cc(C(C)(C)CC(C)(C)C)cc(-n3nc4ccc(C(F)(F)F)cc4n3)c2O)c(O)c(-n2nc3ccc(C(F)(F)F)cc3n2)c1 [E, 2,2′-methylene-bis[6-(5-trifluoromethyl-2H-benzotriazol-2-yl)-4-tert-octylphenol]] | 4.0%
CC(C)(C)CC(C)(C)c1cc(Cc2cc(C(C)(C)C)cc(-n3nc4ccc(Cl)cc4n3)c2O)c(O)c(-n2nc3ccc(C(F)(F)F)cc3n2)c1 [F, Methylene-2-[4-tert-butyl-6-(5-chloro-2H-benzotriazol-2-yl)phenol]-2 ′-[4-tert-octyl-6-(5-trifluoromethyl-2H-benzotriazol-2-yl)phenol]] | 11.0%
CC(C)(C)CC(C)(C)c1cc(Cc2cc(C(C)(C)C)cc(-n3nc4ccc(S(=O)(=O)c5ccccc5)cc4n3)c2O)c(O)c(-n2nc3ccc(C(F)(F)F)cc3n2)c1 [G, Methylene-2-[4-tert-butyl-6-(5-phenylsulfonyl-2H-benzotriazol-2-yl)phenol]-2′-[4-tert-octyl-6-(5-trifluoromethyl-2H-benzotriazol-2-yl)phenol]] | 22.0%
CC(C)(C)CC(C)(C)c1cc(Cc2cc(C(C)(C)C)cc(-n3nc4ccc(Sc5ccccc5)cc4n3)c2O)c(O)c(-n2nc3ccc(C(F)(F)F)cc3n2)c1 [H, Methylene-2-[4-tert-butyl-6-(5-phenylthio-2H-benzotriazol-2-yl)phenol]-2′-[4-tert-octyl-6-(5-trifluoromethyl-2H-benzotriazol-2-yl)phenol]] | 22.0%

Assay: not given
Conditions: not given

SMILES | melting point
CC(C)(C)c1cc(Cc2cc(C(C)(C)C)cc(-n3nc4ccc(S(=O)(=O)c5ccccc5)cc4n3)c2O)c(O)c(-n2nc3ccc(S(=O)(=O)c4ccccc4)cc3n2)c1 [A, 2,2′-Methylene-bis[6-(5-phenylsulfonyl-2H-benzotriazol-2-yl)-4-tert-butylphenol]] | 224 to 234 °C

From patent US6337402B2, “Asymmetrical bisbenzotriazoles substituted by a perfluoroalkyl moiety and compositions stabilized therewith” (Ciba Specialty Chemicals Corporation, priority 1999, dated 2002)
